Results: patent publication US4946779A, “Pseudo-aminosugars, their production and use” (Takeda Chemical Industries, Ltd., priority 1981, dated 1990)

Tests used:
[1] = tested on: rats; assay: Toxicity, LD50 in rats; assay type: in vivo
[2] = Solubility in solvents; assay type: physicochemical
[3] = target: maltase prepared from porcine intestinal mucosa; assay: maltase inhibitory activity, maltose as substrate; assay type: biochemical; settings: substrate 0.05 M maltose, read-out: IC50 (M), concentration of 50% inhibition
Method: (§1) The inhibitory activities of the compounds of this invention against α-glucosidase (yeast, type I, produced by Sigma Chemical Co.,U.S.A.)as well as maltase and saccharase prepared from porcine intestinal mucosa (prepared in accordance with the procedure as described by B. Borgstroom and A. Dahlgvist in Acta Chem. Scand.; 12, 1997-2006, (1958)), when maltose and sucrose are used as a substrate, are determined by adding to 0.25 ml of a solution of an enzyme prepared by diluting suitably with 0.02 M phosphate buffer (pH 6.8) 0.5 ml of a solution of an inhibitory substance to be tested in the same buffer and 0.25 ml of 0.05 M maltose or 0.05 M sucrose as the substrate in the same buffer allowing the mixture to react at 37° C. for 10 minutes, then adding 3 ml of Glucose B-Test Reagent (a glucose oxidase reagent for measurement of glucose, produced by Wako Pure Chemical Co., Japan), further warming the mixture at 37° C. for 20 minutes and measuring the absorbance of the reaction solution at 505 nm.

[4] = target: T1, saccharase prepared from porcine intestinal mucosa (Sus scrofa, UniProt P56729); assay: saccharase inhibitory activity, sucrose as substrate; assay type: biochemical; settings: substrate 0.05 M sucrose, read-out: IC50 (M), concentration of 50% inhibition
T1 construct: sucrase is the C-terminal subunit cleaved from the SI precursor, paired with isomaltase
Method: as §1

[5] = in ethanol, ethyl acetate, chloroform, acetone
[6] = in water, dimethylsulfoxide, methanol

T1 sequence (P56729 with tags, fused parts or gaps): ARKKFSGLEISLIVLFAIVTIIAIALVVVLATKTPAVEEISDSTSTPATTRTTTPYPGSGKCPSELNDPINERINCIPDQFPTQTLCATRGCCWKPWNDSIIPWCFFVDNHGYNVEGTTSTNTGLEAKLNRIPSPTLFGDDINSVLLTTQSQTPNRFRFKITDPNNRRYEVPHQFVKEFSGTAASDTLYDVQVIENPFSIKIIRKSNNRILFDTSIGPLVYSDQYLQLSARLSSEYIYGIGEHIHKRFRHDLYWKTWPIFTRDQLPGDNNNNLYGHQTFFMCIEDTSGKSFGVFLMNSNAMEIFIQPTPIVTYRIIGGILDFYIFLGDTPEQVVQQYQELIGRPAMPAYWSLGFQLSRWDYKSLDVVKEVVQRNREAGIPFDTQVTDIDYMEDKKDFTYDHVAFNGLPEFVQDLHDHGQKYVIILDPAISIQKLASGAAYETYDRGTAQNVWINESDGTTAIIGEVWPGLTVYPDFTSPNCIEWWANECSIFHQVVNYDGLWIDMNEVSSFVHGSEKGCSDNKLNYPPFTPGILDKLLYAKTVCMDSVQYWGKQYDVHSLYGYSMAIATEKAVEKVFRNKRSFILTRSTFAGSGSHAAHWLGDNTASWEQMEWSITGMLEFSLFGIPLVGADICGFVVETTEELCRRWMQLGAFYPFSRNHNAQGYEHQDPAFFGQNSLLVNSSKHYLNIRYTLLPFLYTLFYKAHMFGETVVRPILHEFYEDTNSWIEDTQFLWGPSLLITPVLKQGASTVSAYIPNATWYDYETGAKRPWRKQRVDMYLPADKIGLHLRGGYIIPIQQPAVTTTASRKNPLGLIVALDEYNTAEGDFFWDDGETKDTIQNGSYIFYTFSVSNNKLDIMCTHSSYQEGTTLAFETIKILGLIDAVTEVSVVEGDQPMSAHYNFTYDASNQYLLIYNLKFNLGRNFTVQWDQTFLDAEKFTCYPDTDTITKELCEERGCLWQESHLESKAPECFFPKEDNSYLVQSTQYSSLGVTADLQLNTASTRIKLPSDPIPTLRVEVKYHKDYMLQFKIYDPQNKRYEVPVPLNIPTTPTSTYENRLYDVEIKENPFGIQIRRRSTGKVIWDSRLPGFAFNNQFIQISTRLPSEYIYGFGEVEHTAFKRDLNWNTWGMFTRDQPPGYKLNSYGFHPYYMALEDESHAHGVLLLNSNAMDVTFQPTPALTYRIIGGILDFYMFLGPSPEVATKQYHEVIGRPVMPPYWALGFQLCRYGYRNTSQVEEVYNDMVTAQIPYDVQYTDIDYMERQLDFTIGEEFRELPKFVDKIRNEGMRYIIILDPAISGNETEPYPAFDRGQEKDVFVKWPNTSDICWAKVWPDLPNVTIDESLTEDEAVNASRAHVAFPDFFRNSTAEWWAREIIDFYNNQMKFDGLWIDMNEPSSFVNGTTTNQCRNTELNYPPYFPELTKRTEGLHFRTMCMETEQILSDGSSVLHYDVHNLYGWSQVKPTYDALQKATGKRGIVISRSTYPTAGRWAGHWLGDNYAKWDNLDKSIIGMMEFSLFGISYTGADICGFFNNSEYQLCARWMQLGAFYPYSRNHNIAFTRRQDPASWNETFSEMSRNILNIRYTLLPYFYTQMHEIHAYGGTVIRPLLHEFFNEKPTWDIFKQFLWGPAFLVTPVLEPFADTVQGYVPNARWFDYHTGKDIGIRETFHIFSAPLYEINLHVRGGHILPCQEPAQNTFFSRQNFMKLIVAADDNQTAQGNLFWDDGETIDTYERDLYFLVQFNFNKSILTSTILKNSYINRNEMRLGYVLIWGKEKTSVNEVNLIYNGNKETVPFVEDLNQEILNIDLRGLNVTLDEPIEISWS

| SMILES | LD50 [1] [mg] | Solubility [2, 5] | Solubility [2, 6] | IC50 [3] [M] | IC50 [4] [M] |
| --- | --- | --- | --- | --- | --- |
| NC1CC(O)(CO)C(O)C(O)C1O (centres unmarked) [compound [I], 5-amino-1-hydroxymethyl-1,2,3,4-cyclohexanetetrol] | ≥ 500 |  |  |  |  |
| N[C@H]1C[C@](O)(CO)C(O)C(O)C1O (some centres unmarked) [epivaliolamine] |  | Sparing soluble or insoluble | Soluble | 0.00014 |  |
| N[C@H]1C[C@](O)(CO)[C@@H](O)[C@H](O)[C@H]1O [valiolamine, 1L(1S)-(1(OH), 2,4,5/1(CH2 OH),3)-5-amino-1-hydroxymethyl-1,2,3,4-cyclohexanetetrol] |  | Sparingly soluble or insoluble | Soluble | 2.2e-06 | 4.9e-08 |
